According to patent US11801309B2, “Carbohydrate-functionalized nanoparticles and uses thereof” (VIRGINIA COMMONWEALTH UNIVERSITY INTELLECTUAL PROPERTY …, priority 2016, dated 2023):

B1: Evolocumab (antibody, chains of the INN, looked up, V domains shown)
VH: EVQLVQSGAEVKKPGASVKVSCKASGYTLTSYGISWVRQAPGQGLEWMGWVSFYNGNTNYAQKLQGRGTMTTDPSTSTAYMELRSLRSDDTAVYYCARGYGMDVWGQGTTVTVSS
VL: ESALTQPASVSGSPGQSITISCTGTSSDVGGYNSVSWYQQHPGKAPKLMIYEVSNRPSGVSNRFSGSKSGNTASLTISGLQAEDEADYYCNSYTSTSMVFGGGTKLTVL

Columns and labels:
[1] = test system: LXR target genes (FAS and SREBP1) in hepatocytes; assay: Expression of LXR target genes in hepatocytes (QPCR); assay type: cell-based, mouse; details: 0.2 μM, 24 h
Experimental: FIG. 6A-6D. mDNP-LXR-L delivered LXR ligand appropriately increases gene expression leading to increased FC efflux. FIGS. 6A and 6B: MPMs (FIG. 6A) or Primary hepatocytes (FIG. 6B) were plated in 6-well culture dishes and incubated with either LXR ligand T0901317 or mDNP or mDNP-LXR-L (0.2 μM) for 24 h; untreated cells were used as Controls. Expression of LXR target genes (ABCA1 and ABCG1 in MPMs and FAS and SREBP1 in hepatocytes) was evaluated by QPCR using total RNA as described under “Methods”. Data (Mean±SD, n=3) are expressed as fold increase over Controls. FIG. 6C: MPMs were plated in 6-well plates were exposed to either LXR ligand T0901317 or mDNP or mDNP-LXR-L (0.2 μM) for 24 h. Cells were washed once with cold PBS and harvested in cold buffer on ice as described under “Methods”. Following disruption of cells by sonication and removal of cell debris, CEH activity was measured using a radiometric assay. CEH activity (Mean±SD, n=3) is expressed as % untreated Controls. FIG. 6D: MPMs, plated in 24-well plate, were loaded and labeled with [^3H]-cholesterol as described under “Methods”. During the 24 h equilibration, cells were exposed to either LXR ligand T0901317 or mDNP or mDNP-LXR-L (0.2 μM). FC efflux to medium containing 10% FBS was monitored for 8 and 24 h. Data (Mean±SD, n=6) are expressed as % efflux. *P<0.05 and NS—not significant. […]

[2] = test system: atherosclerotic plaque volume in patients; details: randomized controlled trial; cited from earlier work

| Molecule | expression of FAS and SREBP1 [1] | decrease in atheroma volume [2] |
| --- | --- | --- |
| O=S(=O)(c1ccccc1)N(CC(F)(F)F)c1ccc(C(O)(C(F)(F)F)C(F)(F)F)cc1 [free LXR-L, T0901317] | significant increase |  |
| B1 |  | 0.95% |
